29 compounds from publication PMC2248166, “Quantitative peptide binding motifs for 19 human and mouse MHC class I molecules derived using positional scanning combinatorial peptide libraries” (Immunome Research, 2008) can be followed below.

Where a SMILES comes first, the peptide text is derived from it.

What is called IC50 is the concentration that inhibits the measured activity by half.

The target in this assay is HLA B*0801 (Homo sapiens, UniProt P01889, A93T/A95T/D138N/E176V/E187T/K202T/Q94N/R180D/S35A/V36M/Y33D/Y91F). Briefly: biochemical. In kind it is binding.
Regarding `CC[C@H](C)[C@H](NC(=O)[C@H](CCCNC(=N)N)NC(=O)[C@@H](N)Cc1ccc(O)cc1)C(=O)N[C@@H](C)C(=O)N[C@@H](CCCCN)C(=O)N[C@@H](Cc1ccccc1)C(=O)N[C@@H](CC(C)C)C(=O)N[C@@H](Cc1ccccc1)C(=O)N[C@@H](CCSC)C(=O)O` [3102.0708] (H-YRIAKFLFM-OH), the 50% inhibitory concentration (IC50) was determined as 17 nM.

For the compound `CC[C@H](C)[C@H](NC(=O)[C@H](CCCCN)NC(=O)[C@@H](NC(=O)[C@H](CCCNC(=N)N)NC(=O)[C@H](CC(C)C)NC(=O)[C@@H](N)C(C)C)[C@@H](C)O)C(=O)N[C@H](C(=O)N[C@@H](CO)C(=O)N[C@@H](CC(C)C)C(=O)O)[C@@H](C)O` [3102.0709] (H-VLRTKITSL-OH), the half-maximal inhibitory concentration (IC50) was found to be 0.92 nM. `CC(C)C[C@H](NC(=O)[C@@H](NC(=O)[C@H](CCCNC(=N)N)NC(=O)[C@H](Cc1ccccc1)NC(=O)[C@H](CCCCN)NC(=O)[C@H](CO)NC(=O)[C@H](CC(C)C)NC(=O)[C@H](CCC(N)=O)NC(=O)[C@@H](N)CC(=O)O)[C@@H](C)O)C(=O)O` [3102.0710] (H-DQLSKFRTL-OH) displayed a half-inhibitory concentration (IC50) of 7.4 nM. Under `CC[C@H](C)[C@H](NC(=O)[C@H](CC(=O)O)NC(=O)[C@H](CC(C)C)NC(=O)[C@@H]1CCCN1C(=O)[C@H](CCCCN)NC(=O)[C@H](CC(C)C)NC(=O)[C@H](CCCNC(=N)N)NC(=O)[C@H](C)NC(=O)[C@@H](N)CC(N)=O)C(=O)O` [3102.0711] (H-NARLKPLDI-OH) stands 0.81 nM; under `CC(C)C[C@H](NC(=O)[C@@H](N)CCC(=O)O)C(=O)N[C@@H](CCCCN)C(=O)N[C@@H](CCC(=O)O)C(=O)N[C@@H](CCCCN)C(=O)N[C@@H](CO)C(=O)N[C@H](C(=O)N[C@@H](CCCCN)C(=O)N[C@@H](Cc1ccccc1)C(=O)O)C(C)C` [3102.0712] (H-ELKEKSVKF-OH), 3.2 nM; under `CC[C@H](C)[C@H](NC(=O)[C@H](CO)NC(=O)[C@H](CCSC)NC(=O)[C@H](CC(C)C)NC(=O)[C@H](CCCNC(=N)N)NC(=O)[C@H](CC(N)=O)NC(=O)[C@H](CO)NC(=O)[C@H](CC(N)=O)NC(=O)[C@@H](N)CO)C(=O)O` [3102.0713] (H-SNSNRLMSI-OH), 10 nM. `CSCC[C@H](NC(=O)[C@H](Cc1ccccc1)NC(=O)[C@@H](N)CC(C)C)C(=O)N[C@@H](CO)C(=O)N[C@@H](Cc1c[nH]cn1)C(=O)N[C@H](C(=O)N[C@@H](CCCCN)C(=O)N[C@@H](CO)C(=O)N[C@H](C(=O)O)C(C)C)C(C)C` [3102.0716] (H-LFMSHVKSV-OH) returned a half-maximal inhibitory concentration (IC50) of 3.1 nM. With `CC[C@H](C)[C@H](NC(=O)[C@H](C)NC(=O)[C@H](CO)NC(=O)[C@H](Cc1ccccc1)NC(=O)[C@H](CCCCN)NC(=O)[C@H](CCCCN)NC(=O)[C@H](CO)NC(=O)[C@@H](NC(=O)[C@@H](N)CC(N)=O)[C@@H](C)CC)C(=O)O` [3102.0717] (H-NISKKFSAI-OH) the figure was 2.8 nM; with `CSCC[C@H](N)C(=O)N[C@@H](Cc1ccccc1)C(=O)NCC(=O)N[C@H](C(=O)N[C@@H](CCCNC(=N)N)C(=O)N[C@@H](CCCCN)C(=O)N[C@@H](CC(N)=O)C(=O)N[C@@H](CO)C(=O)N[C@@H](Cc1ccccc1)C(=O)O)[C@@H](C)O` [3102.0718] (H-MFGTRKNSF-OH), 2 nM.

The compound `CC[C@H](C)[C@H](NC(=O)[C@H](CCCCN)NC(=O)[C@@H]1CCCN1C(=O)[C@@H](N)CCC(=O)O)C(=O)N[C@@H](CO)C(=O)N[C@@H](CC(C)C)C(=O)N[C@@H](CC(C)C)C(=O)N1CCC[C@H]1C(=O)N[C@@H](CC(C)C)C(=O)O` [3102.0719] (H-EPKISLLPL-OH) showed an IC50 of 8.5 nM. Under `CC[C@H](C)[C@H](NC(=O)[C@H](CC(N)=O)NC(=O)[C@H](CC(C)C)NC(=O)[C@H](CCCCN)NC(=O)[C@H](CC(N)=O)NC(=O)[C@H](CCSC)NC(=O)[C@@H](NC(=O)[C@@H](N)CC(N)=O)[C@@H](C)CC)C(=O)N[C@H](C(=O)O)C(C)C` [3102.0721] (H-NIMNKLNIV-OH) stands 5.7 nM; under `CC(C)C[C@H](NC(=O)[C@H](CCCNC(=N)N)NC(=O)[C@H](C)NC(=O)[C@H](CC(N)=O)NC(=O)[C@H](CCCNC(=N)N)NC(=O)[C@H](C)NC(=O)CNC(=O)[C@@H]1CCCN1C(=O)[C@@H](N)CC(N)=O)C(=O)O` [3102.0722] (H-NPGARNARL-OH), 6.2 nM; under `CC[C@H](C)[C@H](NC(=O)[C@H](CCC(=O)O)NC(=O)[C@H](CCSC)NC(=O)[C@H](CCCNC(=N)N)NC(=O)[C@@H](N)CC(N)=O)C(=O)N[C@@H](Cc1ccccc1)C(=O)N[C@@H](CC(C)C)C(=O)N[C@H](C(=O)N[C@@H](CC(C)C)C(=O)O)C(C)C` [3102.0723] (H-NRMEIFLVL-OH), 4.9 nM. Compound `CSCC[C@H](NC(=O)[C@H](CC(C)C)NC(=O)[C@@H](N)CCSC)C(=O)N[C@@H](CCC(=O)O)C(=O)N[C@H](C(=O)N[C@@H](Cc1ccccc1)C(=O)N1CCC[C@H]1C(=O)N[C@@H](CCC(N)=O)C(=O)N[C@@H](CC(C)C)C(=O)O)C(C)C` [3102.0725] (H-MLMEVFPQL-OH) showed an IC50 of 13 nM. With `CC[C@H](C)[C@H](NC(=O)[C@H](CC(C)C)NC(=O)[C@H](Cc1c[nH]cn1)NC(=O)[C@H](CCCCN)NC(=O)[C@H](Cc1ccc(O)cc1)NC(=O)[C@@H](NC(=O)[C@@H]1CCCN1C(=O)[C@@H](N)CCSC)[C@@H](C)O)C(=O)N[C@@H](CCSC)C(=O)O` [3102.0727] (H-MPTYKHLIM-OH) the figure was 0.13 nM; with `CSCC[C@H](NC(=O)[C@H](Cc1ccccc1)NC(=O)CN)C(=O)N[C@@H](CCCNC(=N)N)C(=O)N[C@@H](Cc1ccccc1)C(=O)N[C@@H](Cc1ccccc1)C(=O)N[C@@H](CCC(N)=O)C(=O)N[C@@H](CC(C)C)C(=O)N[C@@H](CC(C)C)C(=O)O` [3102.0728] (H-GFMRFFQLL-OH), 2.4 nM; with `CC(C)C[C@H](NC(=O)[C@@H](NC(=O)[C@@H](NC(=O)[C@H](CC(N)=O)NC(=O)[C@H](Cc1ccccc1)NC(=O)[C@H](CC(C)C)NC(=O)[C@H](CCCCN)NC(=O)[C@H](CC(C)C)NC(=O)[C@@H](N)CCC(=O)O)C(C)C)[C@@H](C)O)C(=O)O` [3102.0729] (H-ELKLFNVTL-OH), 4.7 nM.

Turning to `CC[C@H](C)[C@H](NC(=O)[C@H](CC(C)C)NC(=O)[C@@H](N)CO)C(=O)N1CCC[C@H]1C(=O)N[C@@H](CCCNC(=N)N)C(=O)N[C@@H](CC(C)C)C(=O)N[C@H](C(=O)N[C@@H](CC(=O)O)C(=O)N[C@@H](Cc1ccccc1)C(=O)O)C(C)C` [3102.0730] (H-SLIPRLVDF-OH), the IC50 is 13 nM. `CSCC[C@H](NC(=O)[C@H](Cc1ccccc1)NC(=O)CNC(=O)[C@@H](N)[C@@H](C)O)C(=O)N[C@@H](CCCNC(=N)N)C(=O)N[C@@H](Cc1ccccc1)C(=O)N[C@@H](Cc1ccccc1)C(=O)N[C@@H](CCC(N)=O)C(=O)N[C@@H](CC(C)C)C(=O)O` [3102.0731] (H-TGFMRFFQL-OH) returned an IC50 of 0.97 nM. Under `CC[C@H](C)[C@H](NC(=O)[C@H](CCC(N)=O)NC(=O)[C@H](CCC(=O)O)NC(=O)[C@H](CCC(N)=O)NC(=O)[C@H](CCCNC(=N)N)NC(=O)[C@H](CCCNC(=N)N)NC(=O)[C@H](CCSC)NC(=O)CNC(=O)[C@@H](N)CO)C(=O)O` [3102.0733] (H-SGMRRQEQI-OH) stands 17 nM; under `CC(C)C[C@H](NC(=O)[C@H](CO)NC(=O)CNC(=O)[C@@H]1CCCN1C(=O)[C@H](CCCNC(=N)N)NC(=O)[C@H](Cc1ccccc1)NC(=O)[C@H](CCCCN)NC(=O)[C@H](Cc1ccccc1)NC(=O)[C@@H](N)CO)C(=O)O` [3102.0734] (H-SFKFRPGSL-OH), 3 nM. With `CC[C@H](C)[C@H](NC(=O)[C@H](CC(=O)O)NC(=O)[C@H](CC(N)=O)NC(=O)[C@@H](NC(=O)[C@H](CCCCN)NC(=O)[C@@H](NC(=O)[C@H](CCCCN)NC(=O)[C@@H]1CCCN1C(=O)[C@@H](N)CCCNC(=N)N)[C@@H](C)CC)[C@@H](C)O)C(=O)O` [3102.0737] (H-RPKIKTNDI-OH) the figure was 2.1 nM; with `CSCC[C@H](NC(=O)[C@H](CCCCN)NC(=O)[C@@H](N)CCC(=O)O)C(=O)N[C@@H](CCCNC(=N)N)C(=O)N[C@@H](CCCNC(=N)N)C(=O)N[C@@H](CCC(=O)O)C(=O)N[C@@H](CCCNC(=N)N)C(=O)N[C@@H](C)C(=O)N[C@@H](C)C(=O)O` [3102.0739] (H-EKMRRERAA-OH), 1.8 nM. In turn, `CC[C@H](C)[C@H](NC(=O)[C@H](CCCNC(=N)N)NC(=O)[C@@H](NC(=O)[C@H](CCCCN)NC(=O)[C@H](CC(C)C)NC(=O)[C@@H](N)CCCNC(=N)N)[C@@H](C)O)C(=O)N[C@@H](CCCNC(=N)N)C(=O)N[C@@H](CC(N)=O)C(=O)N[C@@H](CC(C)C)C(=O)O` [3102.0740] (H-RLKTRIRNL-OH) returned an IC50 of 0.69 nM. Under `CC[C@H](C)[C@H](NC(=O)[C@H](CCCNC(=N)N)NC(=O)[C@@H](NC(=O)[C@H](CCCCN)NC(=O)[C@H](CCCCN)NC(=O)[C@@H](N)CO)[C@@H](C)O)C(=O)N[C@@H](CO)C(=O)N[C@@H](CC(=O)O)C(=O)N[C@@H](CC(C)C)C(=O)O` [3102.0741] (H-SKKTRISDL-OH) stands 2.8 nM.

With `CC(C)C[C@H](NC(=O)[C@H](CCC(=O)O)NC(=O)[C@@H](NC(=O)[C@H](CC(C)C)NC(=O)[C@H](CCCCN)NC(=O)[C@H](CCCNC(=N)N)NC(=O)[C@H](CCCCN)NC(=O)[C@H](C)NC(=O)[C@@H](N)CCC(=O)O)[C@@H](C)O)C(=O)O` [3102.0742] (H-EAKRKLTEL-OH), the IC50 amounted to 2.5 nM.

In turn, `CC[C@H](C)[C@H](NC(=O)[C@H](CCCNC(=N)N)NC(=O)[C@H](CO)NC(=O)[C@H](CCCNC(=N)N)NC(=O)[C@H](CC(C)C)NC(=O)[C@H](C)N)C(=O)N[C@@H](CCCNC(=N)N)C(=O)N[C@@H](CCC(=O)O)C(=O)N[C@@H](CC(C)C)C(=O)O` [3102.0743] (H-ALRSRIREL-OH) showed a concentration for half-maximal inhibition (IC50) of 0.46 nM. Turning to `CSCC[C@H](NC(=O)[C@H](CC(N)=O)NC(=O)[C@H](Cc1ccccc1)NC(=O)[C@H](Cc1ccccc1)NC(=O)[C@H](CCCNC(=N)N)NC(=O)[C@H](CO)NC(=O)[C@H](CC(C)C)NC(=O)[C@H](CC(C)C)NC(=O)[C@H](C)N)C(=O)O` [3102.0744] (H-ALLSRFFNM-OH), the IC50 worked out at 3 nM. For the compound `CC(C)C[C@H](NC(=O)[C@H](Cc1ccc(O)cc1)NC(=O)[C@@H](NC(=O)[C@H](Cc1ccccc1)NC(=O)[C@H](CCCCN)NC(=O)[C@H](CC(C)C)NC(=O)[C@H](CC(C)C)NC(=O)[C@H](C)NC(=O)[C@@H](N)Cc1ccccc1)[C@@H](C)O)C(=O)O` [3102.0745] (H-FALLKFTYL-OH), the IC50 stood at 1.6 nM.
